One data set concerns the target CDK2/CyclinA (Homo sapiens, UniProt P24941). Put plainly: CDK2/CycA kinase assay (Nanosyn, Caliper microfluidic). Format: biochemical. The note with it: 12-point dose-response, ATP 50 μM (Km), 3 hr; read-out: Inhibition of CDK kinases: Cdk2/CycA. The method, then:
(§1) Selected compounds disclosed herein were tested in CDK4/cyclinD1, CDK6/CycD3, CDK2/CycA, CDK2/cyclinE, CDK5/p25, CDK5/p35, CDK7/CycH/MAT1, and CDK9/CycT kinase assays by Nanosyn (Santa Clara, Calif.) to determine their inhibitory effect on these CDKs. The assays were performed using microfluidic kinase detection technology (Caliper Assay Platform). The compounds were tested in 12-point dose-response format in singlicate at Km for ATP. Phosphoacceptor substrate peptide concentration used was 1.25 μM for all assays (except […] was used for the CKD7/CycH/MAT1 assay and Staurosporine was used as the reference compound for all assays. Specifics of each assay are as described below:
CDK2/CyclinA: Enzyme concentration: 0.2 nM; ATP concentration: 50 μM; Incubation time: 3 hr.

Another data set concerns the target CDK2/CyclinE (Homo sapiens, UniProt P24941). Nature of the data set: CDK2/cyclinE kinase assay (Nanosyn, Caliper microfluidic). Type of data set: biochemical. The note with it: read-out: Inhibition of CDK kinases: Cdk2/CycE. How it is done: as §1
CDK2/CyclinE: Enzyme concentration: 0.2 nM; ATP concentration: 100 μM; Incubation time: 3 hr.

The next data set addresses CDK4/CyclinD1 (Homo sapiens, UniProt P11802). Nature of the data set: CDK4/cyclinD1 kinase assay (Nanosyn, Caliper microfluidic). Format: biochemical. The note with it: 12-point dose-response, ATP 200 μM (Km), 3 hr; read-out: Inhibition of CDK kinases: Cdk4/CycD1. How it is done: as §1
CDK4/CyclinD1: Enzyme concentration: 1 nM; ATP concentration: 200 μM; Incubation time: 3 hr.

The target in another data set is CDK5/p25 (Homo sapiens, UniProt Q00535). Put plainly: CDK5/p25 kinase assay (Nanosyn, Caliper microfluidic). Format: biochemical. As to conditions: 12-point dose-response, ATP 20 μM (Km), 3 hr; read-out: Inhibition of CDK kinases: Cdk5/p25. The method, then:
as §1
CDK5/p25: Enzyme concentration: 0.1 nM; ATP concentration: 20 μM; Incubation time: 3 hr.

The target in the next data set is CDK5/p35 (Homo sapiens, UniProt Q00535). Put plainly: CDK5/p35 kinase assay (Nanosyn, Caliper microfluidic). Format: biochemical. The note with it: 12-point dose-response, ATP 20 μM (Km), 3 hr; read-out: Inhibition of CDK kinases: Cdk5/p35. How it is done: as §1
CDK5/p35: Enzyme concentration: 0.07 nM; ATP concentration: 20 μM; Incubation time: 3 hr.

Another data set deals with CDK6/CyclinD3 (Homo sapiens, UniProt Q00534). Nature of the data set: CDK6/CycD3 kinase assay (Nanosyn, Caliper microfluidic). Type of data set: biochemical. As to conditions: 12-point dose-response, ATP 300 μM (Km), 3 hr; read-out: Inhibition of CDK kinases: Cdk6/CycD3. How it is done:
as §1
CDK6/CyclinD3: Enzyme concentration: 10 nM; ATP concentration: 300 μM; Incubation time: 3 hr.

A further data set addresses CDK7/CycH/MAT1 (Homo sapiens, UniProt P50613). Nature of the data set: CDK7/CycH/MAT1 kinase assay (Nanosyn, Caliper microfluidic). Type of data set: biochemical. As to conditions: 12-point dose-response, ATP 50 μM (Km), 3 hr; read-out: Inhibition of CDK kinases: Cdk7/CycH/MAT1. How it is done: as §1
CDK7/CycH/MAT1: Enzyme concentration: 5 nM; ATP concentration: 50 μM; Incubation time: 3 hr.

A further data set deals with CDK9/CycT (Homo sapiens, UniProt P50750). Nature of the data set: CDK9/CycT kinase assay (Nanosyn, Caliper microfluidic). Format: biochemical. As to conditions: read-out: Inhibition of CDK kinases: Cdk9/Cyc T. How it is done:
as §1
CDK9/CycT: Enzyme concentration: 5 nM; ATP concentration: 10 μM; Incubation time: 17 hr.

In data set [1] the test system is CDK4/6-dependent cell lines. The note with it: cited from earlier work.
For data set [2] the following is noted: Grade 3/4 neutropenia and leukopenia, clinical trial; cited from earlier work.

pIC50: −log10 of the molar value. Some results are limits rather than exact numbers.

CDK7/CycH/MAT1, sequence (P50613 whole entry, species assumed): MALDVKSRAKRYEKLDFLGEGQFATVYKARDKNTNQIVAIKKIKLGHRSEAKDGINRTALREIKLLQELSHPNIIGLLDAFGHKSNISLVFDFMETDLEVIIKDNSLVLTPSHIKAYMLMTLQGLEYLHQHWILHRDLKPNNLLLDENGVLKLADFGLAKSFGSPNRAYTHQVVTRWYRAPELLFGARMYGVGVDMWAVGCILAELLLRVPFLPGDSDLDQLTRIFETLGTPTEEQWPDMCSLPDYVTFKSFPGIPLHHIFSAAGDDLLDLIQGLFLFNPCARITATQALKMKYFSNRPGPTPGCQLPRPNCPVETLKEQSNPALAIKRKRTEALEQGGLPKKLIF
CDK7/CycH/MAT1, sequence (P51946 whole entry partner, species assumed): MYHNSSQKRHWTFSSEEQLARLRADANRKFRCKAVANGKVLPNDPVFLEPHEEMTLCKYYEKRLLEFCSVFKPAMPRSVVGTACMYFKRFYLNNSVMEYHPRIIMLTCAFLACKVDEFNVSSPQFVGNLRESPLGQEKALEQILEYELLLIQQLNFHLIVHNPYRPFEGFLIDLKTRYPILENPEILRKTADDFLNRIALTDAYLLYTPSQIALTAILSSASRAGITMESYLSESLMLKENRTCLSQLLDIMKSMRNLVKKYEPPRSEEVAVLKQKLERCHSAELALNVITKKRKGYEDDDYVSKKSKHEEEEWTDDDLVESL
CDK7/CycH/MAT1, sequence (P51948 whole entry partner, species assumed): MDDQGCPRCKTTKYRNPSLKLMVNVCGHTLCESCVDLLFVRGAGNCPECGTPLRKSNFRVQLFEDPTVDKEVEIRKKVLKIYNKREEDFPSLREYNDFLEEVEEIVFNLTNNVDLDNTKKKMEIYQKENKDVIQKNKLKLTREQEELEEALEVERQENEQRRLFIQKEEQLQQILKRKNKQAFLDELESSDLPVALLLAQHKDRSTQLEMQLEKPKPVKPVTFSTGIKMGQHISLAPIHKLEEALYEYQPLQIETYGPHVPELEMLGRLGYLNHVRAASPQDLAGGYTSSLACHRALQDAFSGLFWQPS
CDK9/CycT, sequence (P50750 whole entry, species assumed): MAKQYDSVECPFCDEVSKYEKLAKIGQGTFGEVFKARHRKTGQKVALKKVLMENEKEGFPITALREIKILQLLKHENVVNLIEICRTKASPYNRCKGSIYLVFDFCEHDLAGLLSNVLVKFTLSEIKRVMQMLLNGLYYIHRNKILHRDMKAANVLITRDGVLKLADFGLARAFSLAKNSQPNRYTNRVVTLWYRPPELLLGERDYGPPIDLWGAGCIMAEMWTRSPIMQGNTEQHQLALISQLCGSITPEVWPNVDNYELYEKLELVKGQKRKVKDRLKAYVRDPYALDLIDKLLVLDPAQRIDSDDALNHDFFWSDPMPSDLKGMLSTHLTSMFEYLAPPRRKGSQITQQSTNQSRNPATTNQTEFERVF
CDK9/CycT, sequence (O60563 whole entry partner, species assumed): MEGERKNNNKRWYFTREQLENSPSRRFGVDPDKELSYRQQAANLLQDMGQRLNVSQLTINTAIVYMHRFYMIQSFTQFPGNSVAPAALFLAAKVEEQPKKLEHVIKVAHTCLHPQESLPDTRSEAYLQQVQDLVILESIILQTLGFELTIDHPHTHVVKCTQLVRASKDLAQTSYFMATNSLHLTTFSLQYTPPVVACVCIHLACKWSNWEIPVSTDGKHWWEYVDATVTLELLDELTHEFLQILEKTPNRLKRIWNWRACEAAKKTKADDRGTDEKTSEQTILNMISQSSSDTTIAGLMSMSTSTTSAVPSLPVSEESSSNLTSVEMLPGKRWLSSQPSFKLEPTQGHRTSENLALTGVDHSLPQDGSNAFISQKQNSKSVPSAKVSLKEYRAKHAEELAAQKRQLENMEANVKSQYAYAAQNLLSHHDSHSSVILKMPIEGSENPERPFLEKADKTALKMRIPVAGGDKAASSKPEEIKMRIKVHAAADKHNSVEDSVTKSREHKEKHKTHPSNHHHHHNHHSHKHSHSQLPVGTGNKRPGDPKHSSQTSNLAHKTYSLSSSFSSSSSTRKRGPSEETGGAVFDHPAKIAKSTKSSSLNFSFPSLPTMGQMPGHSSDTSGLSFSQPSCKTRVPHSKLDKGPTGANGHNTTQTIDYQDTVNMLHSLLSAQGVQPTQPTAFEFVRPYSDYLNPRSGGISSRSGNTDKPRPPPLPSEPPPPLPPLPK
CDK4/CyclinD1, sequence (P11802 whole entry, species assumed): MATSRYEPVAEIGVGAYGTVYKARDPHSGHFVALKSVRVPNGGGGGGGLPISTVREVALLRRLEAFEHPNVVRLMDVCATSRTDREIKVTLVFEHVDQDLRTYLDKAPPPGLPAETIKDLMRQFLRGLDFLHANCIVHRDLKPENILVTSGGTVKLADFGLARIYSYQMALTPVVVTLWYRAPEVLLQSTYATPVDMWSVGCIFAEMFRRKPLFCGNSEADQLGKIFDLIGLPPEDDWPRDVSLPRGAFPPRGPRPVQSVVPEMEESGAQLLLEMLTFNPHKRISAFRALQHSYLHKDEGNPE
CDK4/CyclinD1, sequence (P24385 whole entry partner, species assumed): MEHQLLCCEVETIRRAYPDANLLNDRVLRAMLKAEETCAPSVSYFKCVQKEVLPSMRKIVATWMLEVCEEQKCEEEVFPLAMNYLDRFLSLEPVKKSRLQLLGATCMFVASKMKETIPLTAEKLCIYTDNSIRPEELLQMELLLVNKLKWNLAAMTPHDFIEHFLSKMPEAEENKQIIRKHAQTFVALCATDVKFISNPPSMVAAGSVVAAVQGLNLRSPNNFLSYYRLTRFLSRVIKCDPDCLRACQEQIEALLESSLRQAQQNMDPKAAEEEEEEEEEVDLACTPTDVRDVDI
CDK6/CyclinD3, sequence (Q00534 whole entry, species assumed): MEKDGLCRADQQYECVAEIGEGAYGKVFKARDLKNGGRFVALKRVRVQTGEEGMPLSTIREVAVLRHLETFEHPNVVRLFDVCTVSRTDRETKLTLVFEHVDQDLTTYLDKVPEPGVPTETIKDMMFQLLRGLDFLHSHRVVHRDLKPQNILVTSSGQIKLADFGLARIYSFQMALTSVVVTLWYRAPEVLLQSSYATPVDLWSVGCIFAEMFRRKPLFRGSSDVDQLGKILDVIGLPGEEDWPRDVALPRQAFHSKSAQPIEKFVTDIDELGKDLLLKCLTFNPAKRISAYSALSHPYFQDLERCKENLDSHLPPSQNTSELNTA
CDK6/CyclinD3, sequence (P30281 whole entry partner, species assumed): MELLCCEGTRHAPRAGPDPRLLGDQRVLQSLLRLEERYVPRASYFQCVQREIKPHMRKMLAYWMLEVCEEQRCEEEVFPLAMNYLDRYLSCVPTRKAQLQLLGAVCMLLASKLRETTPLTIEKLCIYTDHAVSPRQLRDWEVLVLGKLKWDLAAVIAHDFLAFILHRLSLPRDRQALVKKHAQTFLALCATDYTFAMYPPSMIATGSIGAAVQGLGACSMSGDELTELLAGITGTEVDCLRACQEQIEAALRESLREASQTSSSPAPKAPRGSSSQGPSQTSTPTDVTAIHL
CDK5/p35, sequence (Q00535 whole entry, species assumed): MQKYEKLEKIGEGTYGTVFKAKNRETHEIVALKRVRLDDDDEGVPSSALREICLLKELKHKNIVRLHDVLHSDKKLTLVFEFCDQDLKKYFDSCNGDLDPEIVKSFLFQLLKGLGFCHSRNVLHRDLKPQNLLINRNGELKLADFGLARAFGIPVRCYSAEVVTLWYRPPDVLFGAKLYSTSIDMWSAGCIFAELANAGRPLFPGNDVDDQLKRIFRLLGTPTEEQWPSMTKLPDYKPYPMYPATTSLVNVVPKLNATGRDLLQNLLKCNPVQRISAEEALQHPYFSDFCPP
CDK5/p35, sequence (Q15078 whole entry partner, species assumed): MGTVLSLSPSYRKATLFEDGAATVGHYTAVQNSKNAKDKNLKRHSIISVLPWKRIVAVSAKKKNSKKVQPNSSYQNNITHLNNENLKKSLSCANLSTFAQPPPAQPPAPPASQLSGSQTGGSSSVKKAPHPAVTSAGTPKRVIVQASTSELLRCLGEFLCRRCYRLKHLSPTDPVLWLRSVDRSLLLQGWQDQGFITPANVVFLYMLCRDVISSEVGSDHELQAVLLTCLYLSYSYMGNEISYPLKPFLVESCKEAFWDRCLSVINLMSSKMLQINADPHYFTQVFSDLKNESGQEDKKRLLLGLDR
CDK5/p25, sequence (Q00535 whole entry, species assumed): as the sequence (Q00535 whole entry, species assumed) above
CDK5/p25, sequence (Q15078 99-307 partner limits assumed, species assumed): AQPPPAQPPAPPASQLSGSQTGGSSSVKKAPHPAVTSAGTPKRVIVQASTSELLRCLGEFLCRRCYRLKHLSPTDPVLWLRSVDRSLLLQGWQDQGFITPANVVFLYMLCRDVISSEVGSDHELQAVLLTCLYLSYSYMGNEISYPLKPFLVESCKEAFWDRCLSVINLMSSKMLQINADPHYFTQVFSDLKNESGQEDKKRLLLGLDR

In the case of `CN1CCN(c2ccc(Nc3ncc4c(n3)N3C(CC4=O)C(=O)NCC34CCCCC4)nc2)CC1` (centres unmarked) [AAAA], the pIC50 on CDK2/CyclinA, at CDK2/CyclinE, at CDK4/CyclinD1, at CDK5/p25, at CDK5/p35 and on CDK6/CyclinD3 was below 4.00 throughout. For the same compound, the pIC50 on CDK7/CycH/MAT1 and at CDK9/CycT was below 4.00 in each case.

For the compound `CN1CCN(c2ccc(Nc3ncc4c(n3)N3C(CC4)C(=O)NCC34CCCCC4)nc2)CC1` (centres unmarked) [BBBB], the pIC50 at CDK2/CyclinA is 4.00 to 5.00; on CDK2/CyclinE it was below 4.00; at CDK4/CyclinD1, 4.00 to 5.00; at CDK5/p25 it was below 4.00; at CDK5/p35, below 4.00; on CDK6/CyclinD3 it was 4.00 to 5.00. Also, the pIC50 on CDK7/CycH/MAT1 and at CDK9/CycT was below 4.00 each time.

As to `CN1CCN(c2ccc(Nc3ncc4c(n3)N3C(CC4=O)C(=O)NCC34CCCC4)nc2)CC1` (centres unmarked) [CCCC], the pIC50 at CDK2/CyclinA, at CDK2/CyclinE, on CDK4/CyclinD1, at CDK5/p25, at CDK5/p35 and at CDK6/CyclinD3 was below 4.00 each time. The pIC50 at CDK7/CycH/MAT1 and on CDK9/CycT was below 4.00 throughout.

Regarding `O=C1NC(=O)c2c1c1c3ccccc3[nH]c1c1[nH]c3cc(Br)ccc3c21` [Compound 2BrIC, 2-bromo-12,13-dihydro-5H-indolo[2,3-a]pyrrolo[3,4]carbazole-5,6-dione], the IR protective characteristics result in data set [1] is reported as “exhibited IR protective characteristics”.

For `CN1CCN(c2ccc(Nc3ncc4c(n3)N3CCNC(=O)C3CC4=O)nc2)CC1` (centres unmarked) [GGGG], the pIC50 on CDK2/CyclinA is below 4.00; on CDK2/CyclinE it was below 4.00; at CDK4/CyclinD1 it was 4.00 to 5.00; at CDK5/p25, below 4.00; at CDK5/p35, below 4.00; at CDK6/CyclinD3, 4.00 to 5.00. Moreover, the pIC50 on CDK7/CycH/MAT1 and on CDK9/CycT was below 4.00 each time.

As to `CC(=O)c1c(C)c2cnc(Nc3ccc(N4CCNCC4)cn3)nc2n(C2CCCC2)c1=O` [PD0332991, 6-acetyl-8-cyclopentyl-5-methyl-2-(5-piperazin-1-yl-pyridin-2-ylammino)-8H-pyrido-[2,3-d]-pyrimidin-7-one], in data set [2], the “patients requiring a dose interruption” value is 71% and the “patients requiring a dose reduction” value is 35%. Besides, the IR protective characteristics entry in [1] is on record as “exhibited IR protective characteristics”.

As to `CN1CCN(c2ccc(Nc3ncc4c(n3)N3C(CC4=O)C(=O)NCC3(C)C)nc2)CC1` (centres unmarked) [YYY], the pIC50 was below 4.00 at CDK2/CyclinA; below 4.00 at CDK2/CyclinE; above 5.00 on CDK4/CyclinD1; below 4.00 on CDK5/p25; below 4.00 at CDK5/p35; 4.00 to 5.00 on CDK6/CyclinD3. The pIC50 on CDK9/CycT was below 4.00.

With `CN1CCN(c2ccc(Nc3ncc4c(n3)N3C(CC4)C(=O)NCC3(C)C)nc2)CC1` (centres unmarked) [ZZZ], the pIC50 at CDK2/CyclinA, on CDK2/CyclinE, on CDK4/CyclinD1, on CDK5/p25, at CDK5/p35 and at CDK6/CyclinD3 was below 4.00 each time. Moreover, the pIC50 at CDK9/CycT was below 4.00.

Values taken from US20150297606A1, “Tricyclic Lactams for Use in the Protection of Hematopoietic Stem and Progenitor Cells Against Ionizing Radiation” (G1 THERAPEUTICS, INC., priority 2014, published 2015).
